In ChEMBL document CHEMBL1201862, “PubChem BioAssay data set” (2004):
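96-well plates; 48 h exposure; 5 concentrations. Endpoints by linear interpolation between flanking doses. Not reached: highest tested concentration assigned. GI50 = concentration required for 50% inhibition of growth.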 Activity calls are given as the source filed them. No stated cut-off is given here; in the data, active = GI50 up to about 1.1 µM and inactive = higher.

Tests used:
Assay in all cases: inhibition of tumour cell growth, NCI panel, 48 h
[1] = system: A498
[2] = system: ACHN
[3] = system: BT-549
[4] = system: CAKI-1
[5] = system: CCRF-CEM
[6] = system: HCC 2998
[7] = system: IGROV-1
[8] = system: K562
[9] = system: KM12
[10] = system: M14
[11] = system: MDA-N
[12] = system: NCI-H226
[13] = system: NCI/ADR-RES
[14] = system: RPMI-8226
[15] = system: SK-MEL-28
[16] = system: SK-MEL-2
[17] = system: SK-MEL-5
[18] = system: SNB-19
[19] = system: T47D
[20] = system: UO-31

SMILES: c1ccc(COc2ccc(C[P+](c3ccccc3)(c3ccccc3)c3ccccc3)cc2)cc1
- GI50 [1]: 1.1 µM (active)
- GI50 [2]: 0.676 µM (active)
- GI50 [3]: 0.139 µM (active)
- GI50 [4]: 6.79 µM (inactive)
- GI50 [5]: 0.627 µM (active)
- GI50 [6]: 0.16 µM (active)
- GI50 [7]: 0.294 µM (active)
- GI50 [8]: 0.0556 µM (active)
- GI50 [9]: 0.191 µM (active)
- GI50 [10]: 0.366 µM (active)
- GI50 [11]: 0.221 µM (active)
- GI50 [12]: 0.504 µM (active)
- GI50 [13]: 13.4 µM (inactive)
- GI50 [14]: 0.0257 µM (active)
- GI50 [15]: 0.337 µM (active)
- GI50 [16]: 0.109 µM (active)
- GI50 [17]: 0.108 µM (active)
- GI50 [18]: 0.354 µM (active)
- GI50 [19]: < 0.0175 µM (active)
- GI50 [20]: 2.94 µM (inactive)

SMILES: CC(=O)OC/C=C/Cn1nc(Br)c(=O)[nH]c1=O
- GI50 [1]: > 100 µM (inactive)
- GI50 [2]: > 100 µM (inactive)
- GI50 [3]: > 100 µM (inactive)
- GI50 [4]: > 100 µM (inactive)
- GI50 [5]: > 100 µM (inactive)
- GI50 [6]: > 100 µM (inactive)
- GI50 [7]: > 100 µM (inactive)
- GI50 [8]: > 100 µM (inactive)
- GI50 [9]: > 100 µM (inactive)
- GI50 [10]: > 100 µM (inactive)
- GI50 [11]: > 100 µM (inactive)
- GI50 [12]: > 100 µM (inactive)
- GI50 [13]: > 100 µM (inactive)
- GI50 [14]: > 100 µM (inactive)
- GI50 [15]: > 100 µM (inactive)
- GI50 [16]: > 100 µM (inactive)
- GI50 [17]: > 100 µM (inactive)
- GI50 [18]: > 100 µM (inactive)
- GI50 [19]: > 100 µM (inactive)
- GI50 [20]: > 100 µM (inactive)

SMILES: N#Cc1c(Cl)c2cccnc2n2c1nc1ccccc12
- GI50 [1]: 17.3 µM (inactive)
- GI50 [2]: 1.78 µM (inactive)
- GI50 [3]: 4.44 µM (inactive)
- GI50 [4]: 1.9 µM (inactive)
- GI50 [5]: 0.9 µM (active)
- GI50 [6]: 3.85 µM (inactive)
- GI50 [7]: 1.41 µM (inactive)
- GI50 [8]: 0.427 µM (active)
- GI50 [9]: 6.41 µM (inactive)
- GI50 [10]: 3.15 µM (inactive)
- GI50 [11]: 3.62 µM (inactive)
- GI50 [12]: 2.93 µM (inactive)
- GI50 [13]: 2.69 µM (inactive)
- GI50 [14]: 1.78 µM (inactive)
- GI50 [15]: 3.64 µM (inactive)
- GI50 [16]: 8 µM (inactive)
- GI50 [17]: 1.13 µM (inactive)
- GI50 [18]: 15.8 µM (inactive)
- GI50 [19]: 2 µM (inactive)
- GI50 [20]: 1.81 µM (inactive)

SMILES: O=NN(CCCl)C(=O)NCCCl [CARMUSTINE]
- GI50 [1]: 102 µM (inactive)
- GI50 [2]: 83 µM (inactive)
- GI50 [3]: 79.3 µM (inactive)
- GI50 [4]: 71.9 µM (inactive)
- GI50 [5]: 18.7 µM (inactive)
- GI50 [6]: 93.8 µM (inactive)
- GI50 [7]: 70.6 µM (inactive)
- GI50 [8]: 45.8 µM (inactive)
- GI50 [9]: 88.9 µM (inactive)
- GI50 [10]: 78.7 µM (inactive)
- GI50 [11]: 71.3 µM (inactive)
- GI50 [12]: 105 µM (inactive)
- GI50 [13]: 94.6 µM (inactive)
- GI50 [14]: 51.3 µM (inactive)
- GI50 [15]: 81.5 µM (inactive)
- GI50 [16]: 91 µM (inactive)
- GI50 [17]: 78.7 µM (inactive)
- GI50 [18]: 68.4 µM (inactive)
- GI50 [19]: 110 µM (inactive)
- GI50 [20]: 98.2 µM (inactive)
